According to US20250368649A1, “TETRAHYDROPYRIDOPYRIMIDINE PAN-KRAS INHIBITORS” (Mirati Therapeutics, Inc., priority 2022, published 2025):

Key:
[1] = biological target: KRas Q61H (Homo sapiens, UniProt P01116, Q61H); experiment: KRas binding assay (TR-FRET displacement), KRas Q61H; details: single point, 10 nM compound
[2] = test system: A549 cells; experiment: Inhibition of KRas-mediated phosphorylation of ERK (Cisbio HTRF pERK), A549 cells; type: cell-based; details: Homo sapiens; for IC50: A549, 3 h, 3 hr compound incubation, Cisbio pERK HTRF; for inhibition at 0.1 µM: single point at 100 nM, 3 hrs compound incubation
[3] = test system: H727 cells; experiment: Inhibition of KRas-mediated phosphorylation of ERK (Cisbio HTRF pERK), H727 cells; type: cell-based; details: Homo sapiens; for IC50: NCI-H727, 3 h, 3 hr compound incubation, Cisbio pERK HTRF; for inhibition at 0.1 µM: NCI-H727, single point at 100 nM, 3 hrs compound incubation
[4] = test system: ASPC1 cells; experiment: Inhibition of KRas-mediated phosphorylation of ERK (Cisbio HTRF pERK), ASPC1 cells; type: cell-based; details: Homo sapiens, AsPC-1 cells; for IC50: ASPC1, 3 h, 3 hr compound incubation, Cisbio pERK HTRF; for inhibition at 0.1 µM: ASPC1, single point at 100 nM, 3 hrs compound incubation
[5] = biological target: KRas WT (Homo sapiens, UniProt P01116); experiment: KRas binding assay (TR-FRET displacement), KRas WT; details: single point, 10 nM compound
[6] = test system: H358 cells; experiment: Inhibition of KRas-mediated phosphorylation of ERK (Cisbio HTRF pERK), H358 cells; type: cell-based; details: Homo sapiens; for IC50: NCI-H358, 3 h, 3 hr compound incubation, Cisbio pERK HTRF; for inhibition at 0.1 µM: NCI-H358, single point at 100 nM, 3 hrs compound incubation
[7] = test system: MKN1 cells; experiment: Inhibition of KRas-mediated phosphorylation of ERK (Cisbio HTRF pERK), MKN1 cells; type: cell-based; details: Homo sapiens, MKN-1, 3 hour compound incubation, Cisbio pERK HTRF
Summary of the method: (§1)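 On the first day, plate 6,000 cells into each well in RPMI medium with 10% fetal bovine serum.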

[8] = biological target: KRas G12V (Homo sapiens, UniProt P01116, G12V); experiment: biochemical; details: Binding to KRas (IC50 nM) G12V, TR-FRET displacement, KRas G12V
[9] = test system: HCT116 cells; experiment: Inhibition of KRas-mediated phosphorylation of ERK (Cisbio HTRF pERK), HCT116 cells; type: cell-based; details: Homo sapiens; for IC50: HCT-116, 3 h, 3 hr compound incubation, Cisbio pERK HTRF; for inhibition at 0.1 µM: HCT-116, single point at 100 nM, 3 hrs compound incubation
[10] = biological target: KRas G12A (Homo sapiens, UniProt P01116, G12A); type: binding; details: single point, 10 nM compound, read-out: Binding to KRas (% inhibition at 10 nM) G12A
[11] = biological target: KRas G12C (Homo sapiens, UniProt P01116, G12C); type: binding; details: single point, 10 nM compound, read-out: Binding to KRas (% inhibition at 10 nM) G12C
[12] = biological target: KRas G12R (Homo sapiens, UniProt P01116, G12R); experiment: biochemical; details: Binding to KRas (IC50 nM) G12R, TR-FRET displacement, KRas G12R
[13] = biological target: KRas G12S (Homo sapiens, UniProt P01116, G12S); type: binding; details: single point, 10 nM compound, read-out: Binding to KRas (% inhibition at 10 nM) G12S
[14] = biological target: KRas G13D (Homo sapiens, UniProt P01116, G13D); type: binding; details: single point, 10 nM compound, read-out: Binding to KRas (% inhibition at 10 nM) G13D
[15] = biological target: KRas G12D (Homo sapiens, UniProt P01116, G12D); experiment: biochemical; details: Binding to KRas (IC50 nM) G12D, TR-FRET displacement, KRas G12D
[16] = test system: PSN1 cells; experiment: Inhibition of KRas-mediated phosphorylation of ERK (Cisbio HTRF pERK), PSN1 cells; type: cell-based; details: Homo sapiens, PSN1, 3 h, 3 hour compound incubation, Cisbio pERK HTRF
Summary of the method: as §1

[17] = test system: H460 cells; experiment: Inhibition of KRas-mediated phosphorylation of ERK (Cisbio HTRF pERK), H460 cells; type: cell-based; details: Homo sapiens; for IC50: NCI-H460, 3 h, 3 hr compound incubation, Cisbio pERK HTRF; for inhibition at 0.1 µM: NCI-H460, single point at 100 nM, 3 hrs compound incubation

KRas G13D, sequence (P01116 1-169 isoform P01116-2 G13D): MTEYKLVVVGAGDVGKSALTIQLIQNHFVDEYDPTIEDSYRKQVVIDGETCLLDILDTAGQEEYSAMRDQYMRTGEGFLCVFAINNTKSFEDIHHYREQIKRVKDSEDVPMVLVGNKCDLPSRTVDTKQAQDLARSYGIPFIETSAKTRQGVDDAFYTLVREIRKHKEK
KRas Q61H, sequence (P01116 1-169 isoform P01116-2 Q61H): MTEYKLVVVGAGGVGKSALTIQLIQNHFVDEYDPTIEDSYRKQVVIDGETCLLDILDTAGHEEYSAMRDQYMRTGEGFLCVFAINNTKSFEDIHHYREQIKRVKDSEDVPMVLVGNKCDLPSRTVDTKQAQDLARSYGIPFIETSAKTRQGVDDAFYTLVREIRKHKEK
KRas G12V, sequence (P01116 1-169 isoform P01116-2 G12V): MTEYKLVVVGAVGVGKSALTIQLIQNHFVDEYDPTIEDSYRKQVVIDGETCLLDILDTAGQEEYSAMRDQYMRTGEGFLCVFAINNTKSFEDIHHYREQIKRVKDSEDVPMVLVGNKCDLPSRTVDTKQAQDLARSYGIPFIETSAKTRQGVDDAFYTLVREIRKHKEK
KRas WT, sequence (P01116 1-169 isoform P01116-2): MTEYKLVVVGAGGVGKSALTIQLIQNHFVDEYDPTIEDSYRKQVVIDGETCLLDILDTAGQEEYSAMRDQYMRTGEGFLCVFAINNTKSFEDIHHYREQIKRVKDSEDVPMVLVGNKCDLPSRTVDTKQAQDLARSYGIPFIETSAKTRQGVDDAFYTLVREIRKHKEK
KRas G12C, sequence (P01116 1-169 isoform P01116-2 G12C): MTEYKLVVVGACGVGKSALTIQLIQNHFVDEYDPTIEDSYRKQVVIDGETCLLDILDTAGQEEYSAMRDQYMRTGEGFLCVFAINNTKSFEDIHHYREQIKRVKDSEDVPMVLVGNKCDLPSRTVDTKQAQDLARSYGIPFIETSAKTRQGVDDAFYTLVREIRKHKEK
KRas G12S, sequence (P01116 1-169 isoform P01116-2 G12S): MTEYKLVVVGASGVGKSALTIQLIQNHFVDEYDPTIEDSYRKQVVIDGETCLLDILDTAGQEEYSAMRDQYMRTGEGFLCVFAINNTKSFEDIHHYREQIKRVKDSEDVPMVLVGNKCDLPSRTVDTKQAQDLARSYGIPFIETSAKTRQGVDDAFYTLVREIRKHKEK
KRas G12R, sequence (P01116 1-169 isoform P01116-2 G12R): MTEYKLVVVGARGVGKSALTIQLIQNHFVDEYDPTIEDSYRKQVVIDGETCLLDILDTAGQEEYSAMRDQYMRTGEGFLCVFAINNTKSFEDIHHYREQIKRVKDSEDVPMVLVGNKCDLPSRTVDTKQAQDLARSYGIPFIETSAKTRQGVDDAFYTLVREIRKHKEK
KRas G12D, sequence (P01116 1-169 isoform P01116-2 G12D): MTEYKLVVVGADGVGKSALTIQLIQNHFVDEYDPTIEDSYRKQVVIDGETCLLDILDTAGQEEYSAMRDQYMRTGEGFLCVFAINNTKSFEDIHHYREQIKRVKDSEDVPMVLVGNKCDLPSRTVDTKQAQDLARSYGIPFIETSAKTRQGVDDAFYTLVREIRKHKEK
KRas G12A, sequence (P01116 1-169 isoform P01116-2 G12A): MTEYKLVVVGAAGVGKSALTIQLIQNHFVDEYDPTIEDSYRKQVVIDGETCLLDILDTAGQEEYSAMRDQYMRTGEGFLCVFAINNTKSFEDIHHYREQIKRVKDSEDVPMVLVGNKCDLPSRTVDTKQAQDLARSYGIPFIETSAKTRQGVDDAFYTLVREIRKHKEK

SMILES	inhibition at 0.01 µM [1]	IC50 [2]	IC50 [3]	IC50 [4]	inhibition at 0.01 µM [5]	IC50 [6]	IC50 [7]	IC50 [8]	IC50 [9]	inhibition at 0.01 µM [10]	inhibition at 0.01 µM [11]	IC50 [12]	inhibition at 0.01 µM [13]	inhibition at 0.01 µM [14]	IC50 [15]	IC50 [16]	IC50 [17]	inhibition at 0.1 µM [2]	inhibition at 0.1 µM [6]	inhibition at 0.1 µM [9]	other results
CCc1c(F)ccc2cc(O)cc(N3CCc4c(nc(OC[C@@]56CCCN5C[C@H](F)C6)nc4N4CCCn5nc(C(=O)N6CC[C@@H]7CC[C@H]6C7)cc5C4)C3)c12 [Example 338, (1S,5S)-2-azabicyclo[3.2.1]octan-2-yl(5-(7-(8-ethyl-7-fluoro-3-hydroxynaphthalen-1-yl)-2-(((2R,7aS)-2-fluorohexahydro-1H-pyrrolizin-7a-yl)methoxy)-5,6,7,8-tetrahydropyrido[3,4-d]pyrimidin-4-yl)-5,6,7,8-tetrahydro-4H-pyrazolo[1,5-a][1,4]diazepin-2-yl)methanone]	93%	21 nM	11 nM	6 nM	92%	7 nM	9.6 nM	< 2 nM	226 nM	90%	97%	< 2 nM	97%	92%	2 nM	5430 nM	67 nM	78%	102%	38%	inhibition at 0.1 µM [3]: 76%; inhibition at 0.1 µM [4]: 95%; inhibition at 0.1 µM [17]: 73%
CCc1c(F)ccc2cc(O)cc(N3CCc4c(nc(OC[C@@]56CCCN5C[C@H](F)C6)nc4N4CCCn5nc(C(=O)N6CC7CCC6CC7)cc5C4)C3)c12 [Example 339, 2-azabicyclo[2.2.2]octan-2-yl(5-(7-(8-ethyl-7-fluoro-3-hydroxynaphthalen-1-yl)-2-(((2R,7aS)-2-fluorohexahydro-1H-pyrrolizin-7a-yl)methoxy)-5,6,7,8-tetrahydropyrido[3,4-d]pyrimidin-4-yl)-5,6,7,8-tetrahydro-4H-pyrazolo[1,5-a][1,4]diazepin-2-yl)methanone]	94%	17 nM	6 nM	6 nM	93%	4 nM	8.4 nM	< 2 nM	156 nM	92%	98%	< 2 nM	97%	92%	2 nM	5720 nM	43 nM	80%	95%	20%	inhibition at 0.1 µM [3]: 74%; inhibition at 0.1 µM [4]: 97%; inhibition at 0.1 µM [17]: 59%
CCc1c(F)ccc2cc(O)cc(N3CCc4c(nc(OC[C@@]56CCCN5C[C@H](F)C6)nc4N4CCCn5nc(C(=O)N6C7CCC6CC7)cc5C4)C3)c12 [Example 340, 7-azabicyclo[2.2.1]heptan-7-yl(5-(7-(8-ethyl-7-fluoro-3-hydroxynaphthalen-1-yl)-2-(((2R,7aS)-2-fluorohexahydro-1H-pyrrolizin-7a-yl)methoxy)-5,6,7,8-tetrahydropyrido[3,4-d]pyrimidin-4-yl)-5,6,7,8-tetrahydro-4H-pyrazolo[1,5-a][1,4]diazepin-2-yl)methanone]	97%	11 nM	4 nM	8 nM	94%	3 nM	7.5 nM	< 2 nM	110 nM	97%	98%	< 2 nM	99%	94%	< 2 nM	2510 nM	31 nM	82%	96%	32%	inhibition at 0.1 µM [3]: 80%; inhibition at 0.1 µM [4]: 96%; inhibition at 0.1 µM [17]: 69%
CCc1c(F)ccc2cc(O)cc(N3CCc4c(nc(OC[C@@]56CCCN5C[C@H](F)C6)nc4N4CCCn5nc(C(=O)N6C7CCCC6CC7)cc5C4)C3)c12 [Example 341, 8-azabicyclo[3.2.1]octan-8-yl(5-(7-(8-ethyl-7-fluoro-3-hydroxynaphthalen-1-yl)-2-(((2R,7aS)-2-fluorohexahydro-1H-pyrrolizin-7a-yl)methoxy)-5,6,7,8-tetrahydropyrido[3,4-d]pyrimidin-4-yl)-5,6,7,8-tetrahydro-4H-pyrazolo[1,5-a][1,4]diazepin-2-yl)methanone]	95%	19 nM	9 nM	8 nM	93%	3 nM	6.7 nM	< 2 nM	141 nM	87%	97%	2 nM	96%	92%	2 nM	4530 nM	42 nM	75%	91%	47%	inhibition at 0.1 µM [3]: 76%; inhibition at 0.1 µM [4]: 95%; inhibition at 0.1 µM [17]: 77%

Continued, in another order:

inhibition at 0.01 µM [1]	IC50 [2]	IC50 [3]	IC50 [4]	inhibition at 0.01 µM [5]	IC50 [6]	IC50 [7]	IC50 [8]	IC50 [9]	inhibition at 0.01 µM [10]	inhibition at 0.01 µM [11]	IC50 [12]	inhibition at 0.01 µM [13]	inhibition at 0.01 µM [14]	IC50 [15]	IC50 [16]	IC50 [17]	SMILES	inhibition at 0.1 µM [2]	inhibition at 0.1 µM [6]	inhibition at 0.1 µM [9]	other results
96%	8 nM	4 nM	2 nM	96%	2 nM	3.9 nM	< 2 nM	74 nM	96%	99%	< 2 nM	99%	96%	< 2 nM	2400 nM	23 nM	CCc1c(F)ccc2cc(O)cc(N3CCc4c(nc(OC[C@@]56CCCN5C[C@H](F)C6)nc4N4CCCn5nc(C(=O)N6CC7CC6C7)cc5C4)C3)c12 [Example 342, 2-azabicyclo[2.1.1]hexan-2-yl(5-(7-(8-ethyl-7-fluoro-3-hydroxynaphthalen-1-yl)-2-(((2R,7aS)-2-fluorohexahydro-1H-pyrrolizin-7a-yl)methoxy)-5,6,7,8-tetrahydropyrido[3,4-d]pyrimidin-4-yl)-5,6,7,8-tetrahydro-4H-pyrazolo[1,5-a][1,4]diazepin-2-yl)methanone]	87%	100%	59%	inhibition at 0.1 µM [3]: 80%; inhibition at 0.1 µM [4]: 96%; inhibition at 0.1 µM [17]: 86%
97%	7 nM	3 nM	2 nM	97%	2 nM	4.1 nM	< 2 nM	55 nM	97%	99%	< 2 nM	99%	96%	< 2 nM	2030 nM	24 nM	CCc1c(F)ccc2cc(O)cc(N3CCc4c(nc(OC[C@@]56CCCN5C[C@H](F)C6)nc4N4CCCn5nc(C(=O)N6CCC7CC76)cc5C4)C3)c12 (stereo partly drawn) [Example 344, 2-azabicyclo[3.1.0]hexan-2-yl(5-(7-(8-ethyl-7-fluoro-3-hydroxynaphthalen-1-yl)-2-(((2R,7aS)-2-fluorohexahydro-1H-pyrrolizin-7a-yl)methoxy)-5,6,7,8-tetrahydropyrido[3,4-d]pyrimidin-4-yl)-5,6,7,8-tetrahydro-4H-pyrazolo[1,5-a][1,4]diazepin-2-yl)methanone]	85%	97%	57%	inhibition at 0.1 µM [17]: 88%
